The values that follow come from ChEMBL document CHEMBL3784991, “Design, synthesis and evaluation of novel HIV-1 NNRTIs with dual structural conformations targeting the entrance channel of the NNRTI binding pocket” (Eur J Med Chem, 2016).

The structures appear in SMILES notation. Where a name gives a salt, the structure may show the parent alone. A value given as a limit tells only on which side of the number the result lay.

Data set [1] has as its system Human immunodeficiency virus 1. The experiment in a line: Antiviral activity against wild type HIV1 3B infected in human MT4 cells assessed as cell viability after 4 days by MTT assay. In kind it is functional, organism-based. The note with it: Human immunodeficiency virus 1, 3B, MT4, 96 h. On the technique in general: Tetrazolium dyes change colour on reduction, which living cells bring about.

Data set [2] is described as follows: Cytotoxicity against mock infected human MT4 cells after 4 days by MTT assay. It counts as cell-based.
A short description of data set [3]: Selectivity index, ratio of CC50 for mock infected human MT4 cells to EC50 for HIV1 3B infected in human MT4 cells. It counts as toxicity, cell-based. The note with it: read-out: Ratio CC50/EC50.
Data set [4] deals with Human immunodeficiency virus 2. In words: Antiviral activity against HIV2 ROD infected in human MT4 cells assessed as cell viability after 4 days by MTT assay. In kind it is functional, organism-based. The note with it: Human immunodeficiency virus 2, ISOLATE ROD, MT4, 96 h.
Data set [5] in a line: Selectivity index, ratio of CC50 for mock infected human MT4 cells to EC50 for HIV2 ROD infected in human MT4 cells. It counts as toxicity, cell-based. The note with it: read-out: Ratio CC50/EC50.
Data set [6] concerns Human immunodeficiency virus 1. In words: Antiviral activity against HIV1 RES056 harboring reverse transcriptase K103N/[…] double mutant infected in human MT4 cells assessed as cell viability after 4 days by MTT assay. It counts as functional, organism-based. The settings on record: Human immunodeficiency virus 1, RES056, MT4, 96 h.
Data set [7] in a line: Selectivity index, ratio of CC50 for mock infected human MT4 cells to EC50 for HIV1 RES056 harboring reverse transcriptase K103N/[…] double mutant infected in human MT4 cells. It counts as toxicity, cell-based. The note with it: read-out: Ratio CC50/EC50.
The target in data set [8] is Human immunodeficiency virus type 1 reverse transcriptase (Human immunodeficiency virus 1, UniProt Q72547). The experiment in a line: Inhibition of wild type HIV1 Reverse transcriptase assessed as reduction of biotin deoxyuridine triphosphate incorporation into the wild type HIV1 reverse transcriptase after 1 hr by ELISA. (In an ELISA, binding on a coated surface is turned into a signal by an enzyme label.)

Data set [9] relates to Human immunodeficiency virus 1. The experiment in a line: Potency index, ratio of nevirapine EC50 to compound EC50 for HIV1 3B infected in human MT4 cells. In kind it is functional.

Regarding `Nc1ccn([C@H]2CS[C@@H](CO)O2)c(=O)n1`, the EC50 – broadly, the concentration at which the effect is half-maximal – in data set [1] was found to be 2.53 µM; in [4], 9.9 µM. The cytotoxic concentration (CC50) (in general, the concentration at which the toxic effect on the cells reaches its halfway point) at 96 h in [2] was over 87.2 µM. Moreover, the results for the selectivity ratio in data set [3] and in data set [5] were over 34 and over 9, respectively.

For the molecule `Cc1ccc(Nc2nc(Nc3ccc(C#N)cc3)cc(Oc3c(C)cc(C#N)cc3C)n2)cc1`, the half-maximal effective concentration (EC50) in data set [1] and in data set [4] was over 8.53 µM in each case. The molecule also registered a CC50 at 96 h in data set [2] of 8.53 µM. The selectivity ratio in data set [3] and in data set [5] was under 1 in each case.

In the case of `Cc1ccc(Nc2nc(Nc3ccc(Cl)cc3)cc(Oc3c(C)cc(C)cc3C)n2)cc1`, the half-maximal effective concentration (EC50) in data set [1] and in data set [4] was over 48.2 µM in each case. The half-maximal cytotoxic concentration (CC50) at 96 h in data set [2] is 48.2 µM. In addition, the selectivity ratio in data set [3] and in [5] was under 1 throughout.

On to `Cc1ccc(Nc2nc(Nc3cccc(C)c3)cc(Oc3c(C)cc(C)cc3C)n2)cc1`, for which the half-maximal effective concentration (EC50) in [1] and in [4] was over 51 µM in each case. Also, the midpoint of cytotoxicity in [2], the CC50 at 96 h, lay at 51 µM. Further, the selectivity ratio in [3] and in [5] was under 1 throughout.

In the case of `Cc1cc(C#N)cc(C)c1Oc1cc(Nc2ccc(C#N)cc2)nc(Nc2cccc(C#N)c2)n1`, the concentration giving a half-maximal response (EC50) in data set [1] and in data set [4] was over 2.73 µM throughout. Besides, the half-maximal cytotoxic concentration (CC50) at 96 h in data set [2] came out at 2.73 µM. Further, the selectivity ratio in [3] and in data set [5] was under 1 each time.

Regarding `Cc1cc(C)c(Oc2cc(Nc3ccc(C#N)cc3)nc(Nc3cccc(C#N)c3)n2)c(C)c1`, the concentration giving a half-maximal response (EC50) in data set [1] and in data set [4] was over 5.38 µM throughout. The midpoint of cytotoxicity in data set [2], the CC50 at 96 h, lay at 5.38 µM. Also, the selectivity ratio in data set [3] and in data set [5] was under 1 throughout.

`Cc1ccc(Nc2nc(Nc3ccc(C#N)cc3)cc(Oc3c(C)cc(C)cc3C)n2)cc1`: the EC50 in data set [1] and in [4] was over 27.1 µM each time. Also, it took 27.1 µM to reach half-maximal cytotoxicity in data set [2] (CC50 at 96 h). Also, the selectivity ratio in [3] and in data set [5] was under 1 throughout.

As for `Cc1cc(C#N)cc(C)c1Oc1cc(Nc2ccc(Cl)cc2)nc(Nc2cccc(C#N)c2)n1`, the 50% effective concentration (EC50) in data set [1] and in data set [4] was over 3.15 µM in each case. Further, in data set [2], half-maximal cytotoxicity (CC50 at 96 h) was put at 3.15 µM. In addition, the selectivity ratio in data set [3] and in data set [5] was under 1 in each case.

Consider `Cc1cccc(Nc2cc(Oc3c(C)cc(C#N)cc3C)nc(Nc3cccc(C#N)c3)n2)c1`, for which the concentration for a half-maximal effect (EC50) in data set [1] and in [4] was over 2.89 µM each time. It took 2.89 µM to reach half-maximal cytotoxicity in data set [2] (CC50 at 96 h). Further, the selectivity ratio in data set [3] and in data set [5] was under 1 each time.

Turning to `Cc1cc(C#N)cc(C)c1Oc1cc(Nc2ccc(C#N)cc2)nc(Nc2ccc(C#N)cc2)n1`, the half-maximal effective concentration (EC50) in data set [1] was 0.11 µM; in data set [6], 2.18 µM; in [4], over 13 µM. In addition, the half-maximal cytotoxic concentration (CC50) at 96 h in data set [2] worked out at 13 µM. For the same molecule, the selectivity ratio in data set [3] was 117; in [7], 2; in data set [5] it was under 1. Further, the concentration for half-maximal inhibition (IC50) (usually the concentration that gives 50% inhibition) in data set [8] was 0.0727 µM. The “Ratio EC50” value in data set [9] amounted to 2.

Turning to `Cc1ccc(Nc2nc(Nc3cccc(C)c3)cc(Oc3c(C)cc(C#N)cc3C)n2)cc1`, the concentration giving a half-maximal response (EC50) in data set [1] and in data set [4] was over 17.4 µM throughout. The molecule further returned a half-maximal cytotoxic concentration (CC50) at 96 h in [2] of 17.3 µM. For the same molecule, the selectivity ratio in [3] and in data set [5] was under 1 in each case.

On to `Cc1cccc(Nc2cc(Oc3c(C)cc(C)cc3C)nc(Nc3cccc(C#N)c3)n2)c1`, for which the 50% effective concentration (EC50) in data set [1] and in data set [4] was over 25.8 µM in each case. The molecule also registered a CC50 at 96 h in [2] of 25.8 µM. Besides, the selectivity ratio in [3] and in data set [5] was under 1 each time.

With `Cc1cc(C#N)cc(C)c1Oc1cc(Nc2ccc(Cl)cc2)nc(Nc2ccc(C#N)cc2)n1`, the EC50 in [1] was 0.79 µM; in data set [6], over 3.28 µM; in [4] it was over 3.28 µM. In addition, in data set [2], the CC50 at 96 h amounted to 3.28 µM. Also, the selectivity ratio is 4 in [3], under 1 in data set [7] and under 1 in data set [5].

Turning to `Cc1cc(C)c(Oc2cc(Nc3ccc(Cl)cc3)nc(Nc3ccc(C#N)cc3)n2)c(C)c1`, the half-maximal effective concentration (EC50) in data set [1] is at least 1.62 µM; in [6] it was over 6.67 µM; in [4], over 6.67 µM. This molecule yielded a half-maximal cytotoxic concentration (CC50) at 96 h in data set [2] of 6.68 µM. The selectivity ratio in data set [3] is at most 4; in [7], under 1; in data set [5], under 1.

As to `Cc1cc(C)c(Oc2cc(Nc3ccc(Cl)cc3)nc(Nc3cccc(C#N)c3)n2)c(C)c1`, the EC50 in data set [1] and in [4] was over 12.6 µM throughout. The same molecule yielded a CC50 at 96 h in [2] of 12 µM. For the same molecule, the selectivity ratio in data set [3] and in [5] was under 1 in each case.

As to `Cc1ccc(Nc2nc(Nc3ccc(Cl)cc3)cc(Oc3c(C)cc(C#N)cc3C)n2)cc1`, the EC50 in [1] is 31.4 µM; in data set [6], over 274 µM; in [4], over 274 µM. For the same molecule, the 50% cytotoxic concentration (CC50) at 96 h in data set [2] is over 274 µM. Also, the selectivity ratio in data set [3] was over 9; in [7], 1; in data set [5], 1.

With `Cc1cc(C)c(Oc2cc(Nc3ccc(C#N)cc3)nc(Nc3ccc(C#N)cc3)n2)c(C)c1`, the EC50 in data set [1] is 0.78 µM; in data set [6], over 5.98 µM; in [4], over 5.98 µM. The same molecule showed a CC50 at 96 h in [2] of 5.98 µM. Moreover, the selectivity ratio in data set [3] is 8; in data set [7], under 1; in data set [5], under 1.

For `Cc1cccc(Nc2cc(Oc3c(C)cc(C)cc3C)nc(Nc3ccc(C#N)cc3)n2)c1`, the 50% effective concentration (EC50) in [1], in [6] and in [4] was over 24.1 µM throughout. For the same molecule, in [2], it took 24.1 µM to reach half-maximal cytotoxicity (CC50 at 96 h). The selectivity ratio in data set [3], in data set [7] and in data set [5] was under 1 throughout.

As to `Cc1cccc(Nc2cc(Oc3c(C)cc(C#N)cc3C)nc(Nc3ccc(C#N)cc3)n2)c1`, the values for the concentration giving a half-maximal response (EC50) in data set [1], in data set [6] and in data set [4] were 0.82 µM, over 2.96 µM and over 2.96 µM, respectively. In addition, the CC50 at 96 h in data set [2] was 2.96 µM. Further, the results for the selectivity ratio in data set [3], in data set [7] and in data set [5] were 4, under 1 and under 1, respectively.

As for `CC(C)Nc1cccnc1N1CCN(C(=O)c2cc3cc(NS(C)(=O)=O)ccc3[nH]2)CC1` [DELAVIRDINE MESYLATE], the EC50 is 0.027 µM in [1] and over 28.2 µM in data set [6]. For the same molecule, it took 28.2 µM to reach half-maximal cytotoxicity in data set [2] (CC50 at 96 h). In addition, the selectivity ratio was 1080 in data set [3] and under 1 in data set [7].

Consider `O=c1[nH]cnc2c1ncn2[C@H]1CC[C@@H](CO)O1` [DIDANOSINE], for which the concentration for a half-maximal effect (EC50) was 76 µM in [1] and 82.1 µM in data set [4]. This molecule also yielded a CC50 at 96 h in data set [2] of over 212 µM. For the same molecule, the selectivity ratio in data set [3] and in [5] was over 3 in each case.

For the molecule `O=C1Nc2ccc(Cl)cc2[C@@](C#CC2CC2)(C(F)(F)F)O1` [EFAVIRENZ], in data set [6], the EC50 came to 0.225 µM. The cytotoxic concentration (CC50) at 96 h in data set [2] is over 6.34 µM. Moreover, the selectivity ratio in data set [3] is over 1210; in [7], over 28.

With `Cc1cc(C#N)cc(C)c1Oc1nc(Nc2ccc(C#N)cc2)nc(N)c1Br` [ETRAVIRINE], the concentration giving a half-maximal response (EC50) in data set [1] came out at 0.0039 µM; in data set [6], 0.034 µM. The same molecule returned a cytotoxic concentration (CC50) at 96 h in data set [2] of 2.16 µM.

As for `Cc1ccnc2c1NC(=O)c1cccnc1N2C1CC1` [NEVIRAPINE], the EC50 in data set [6] was over 15 µM. Moreover, the 50% cytotoxic concentration (CC50) at 96 h in data set [2] is over 15 µM.

Turning to `Cc1cn([C@H]2C[C@H](N=[N+]=[N-])[C@@H](CO)O2)c(=O)[nH]c1=O` [ZIDOVUDINE], the EC50 amounted to 0.017 µM in data set [6] and 0.0082 µM in [4]. Moreover, the half-maximal cytotoxic concentration (CC50) at 96 h in data set [2] was over 7.48 µM. Besides, the selectivity ratio is over 1000 in data set [3], over 448 in [7] and over 925 in [5].
